Measured values as given in US10487056B2, “Small molecule androgen receptor inhibitors and methods of use thereof” (GEORGETOWN UNIVERSITY, priority 2015, dated 2019).

What was measured:
Assay type in all cases: cell-based
22Rv1-MDVR cells = experiment: Cell viability (MTT), 22Rv1-MDVR cells; conditions: MDV3100, ARN-509 10 μM, SH-I-125 range, 3 days
Protocol: (§6) Cell viability was measured using the MTT assay.

VCaP cells = experiment: Caspase-Glo 3/7 activity assay, VCaP cells; conditions: 3 days
Protocol: (§1) Caspase 3/7 activity was measured using Caspase-Glo 3/7 substrates. Data represent mean of three independent experiments with quadruplicate samples; bars, SEM. ***, p value <0.001 determined by ANOVA.

VCaP-MDVR cells = experiment: Cell viability (MTT), VCaP-MDVR cells; conditions: MDV3100, ARN-509 10 μM, SH-I-125 range, 3 days
Protocol: as §6

AR [1] = experiment: 22Rv1-MDVR-ARE-luc luciferase reporter assay; conditions: 22Rv1-MDVR-ARE-luc cells, range of doses, 24 hours
Protocol: (§2) […]. Luciferase activity was measured and plotted as a percentage of control. Data represent the mean of three independent experiments with quadruplicate samples; bars, SEM. ***, p value <0.001 determined by ANOVA.
(§3) VCaP-MDVR and 22Rv1-MDVR stably expressing ARE-luciferase construct (VCaP-MDVR-ARE-luc and 22Rv1-MDVR-ARE-luc) were generated as described above in the Materials and Methods section. […].

AR [2] = experiment: Immunofluorescence staining of AR in 22Rv1-MDVR cells; conditions: MDV3100 10 μM, ARN509 10 μM or SH-I-125 1 μM, 24 hours
Protocol: […]. AR and AR-V7 expression levels were assessed.
(§4) Immunofluorescence staining was performed as described in Amin et al., Mol. Cancer Ther., 13:341-52 (2014).

22Rv1 cells [3] = experiment: Caspase-Glo 3/7 activity assay, 22Rv1 cells; conditions: 3 days
Protocol: 22Rv1 cells were treated with SH-I-125 (1 μM) for one, two, or three days, and caspase 3/7 activity was measured using Caspase-Glo 3/7 substrates. […] Data represent mean of three independent experiments with quadruplicate samples; bars, SEM. ***, p value <0.001 determined by ANOVA.
as §1
[…]; Madison, Wis.).
. […] Staurosporine was used as a positive control for apoptosis induction (FIG. 10B).

22Rv1 cells [4] = experiment: MTT cell viability assay, 22Rv1 cells; conditions: 3 days
Protocol: Cells were treated in the manner indicated below for the specified period of time. MTT assay was performed as described in Amin et al., Mol. Cancer Ther., 13:341-52 (2014).
To determine the effects of SH-I-125 on prostate cancer cell growth, 22Rv1 cells were treated with SH-I-125 and cell viability was measured after a period of 3 days. […]. In comparison, non-tumorigenic primary prostate epithelial cells (PrEC) retained 80% viability in the presence of a similar range of doses of SH-I-125, showing that tumorigenic cells are more susceptible to the growth inhibitory properties of SH-I-125 compared to non-tumorigenic cells (FIG. 8B). […] Staurosporine was used as a positive control for cell death induction in live and dead assays (FIG. 9C).

AR [5] = experiment: VCaP-MDVR-ARE-luc luciferase reporter assay; conditions: VCaP-MDVR-ARE-luc cells, range of doses, 24 hours
Protocol: as §2, §3

AR [6] = experiment: 22Rv1-ARE-luc androgen-response element luciferase reporter assay; conditions: range of doses, 24 hours
Protocol: VCaP and CWR22Rv1 (referred to as 22Rv1) cells were transduced with ARE-luciferase Cignal Lenti Pathway Reporter (Qiagen; Valencia, Calif.) and cultured as described above in the presence of 1 μg/mL puromycin. Following antibiotic selection, cells stably expressing ARE-luciferase were isolated, cloned and cultured to generate a stable ARE-reporter cell lines.

AR and AR-V7 = experiment: Western blot of AR and AR-V7 levels in 22Rv1 cells; conditions: 3 days, SH-I-125 at 1 μM
Protocol: AR levels were assessed by Western blotting. β-actin was used as a loading control.
(§5) AR and AR-V7 levels were assessed. β-actin was used as a loading control.
as §5
MG132 (5 μM), a known proteasome inhibitor, was added on Day 2. AR expression was assessed by Western blotting. β-actin was used as a loading control.

AR [7] = experiment: Immunofluorescence staining of AR and PSA in VCaP-MDVR cells; conditions: DHT 1 nM, MDV3100 10 μM or SH-I-125 1 μM, 24 hours
Protocol: AR and PSA expression levels were assessed.
as §4

Compound: CNC(=O)c1ccc(N2C(=S)N(c3cnc(C#N)c(C(F)(F)F)c3)C(=O)C23CCC3)cc1F [ARN-509]
- cell growth / viability (22Rv1-MDVR cells): continued proliferation
- caspase 3/7 activity (VCaP cells): did not have a similar effect
- cell growth / viability (VCaP-MDVR cells): continued proliferation
- luciferase activity (AR activity) (AR [1]): unchanged from control
- AR nuclear localization (AR [2]): unaffected
- caspase 3/7 activity (22Rv1 cells [3]): did not have a similar effect
- prevention of growth compared with SH-I-125 (22Rv1 cells [4]): significantly less effective
- reduction of luciferase activity (AR [5]): 50%
- inhibitory effect on ARE-luciferase activity (plateau) (AR [6]): 50%
- cellular AR and AR-V7 levels (AR and AR-V7): no effect

Compound: CNC(=O)c1ccc(N2C(=S)N(c3ccc(C#N)c(C(F)(F)F)c3)C(=O)C2(C)C)cc1F [MDV3100]
- cell growth / viability (22Rv1-MDVR cells): continued proliferation
- caspase 3/7 activity (VCaP cells): did not have a similar effect
- cell growth / viability (VCaP-MDVR cells): continued proliferation
- luciferase activity (AR activity) (AR [1]): unchanged from control
- AR nuclear localization (AR [2]): unaffected
- caspase 3/7 activity (22Rv1 cells [3]): did not have a similar effect
- prevention of growth compared with SH-I-125 (22Rv1 cells [4]): significantly less effective
- reduction of luciferase activity (AR [5]): 50%
- cellular AR and AR-V7 levels (AR and AR-V7): no effect
- AR expression / nuclear localization (AR [7]): AR expression was not attenuated
- PSA expression (AR [7]): continued to inhibit PSA expression
